Data on three compounds can be found in ChEMBL document CHEMBL5625173, “Antimycobacterial pyridine carboxamides: From design to in vivo activity” (Eur J Med Chem, 2023).

Values after ≈ are worked out from the molar mass of the structure shown.

For orientation: MIC means the lowest concentration that inhibits growth of the organism. Low values mean a more susceptible organism, high ones a less susceptible organism.

Format in all cases: functional
Assay [1] has as its system Mycobacterium tuberculosis. Put plainly: Antimycobacterial activity against Mycobacterium tuberculosis H37Rv overexpressing folP1 by alamar blue staining based microplate analysis. Background: Alamar Blue is a resazurin reagent that responds to reducing activity.
Assay [2] deals with Mycobacterium tuberculosis. The experiment in a line: Antimycobacterial activity against Mycobacterium tuberculosis H37Rv overexpressing folC by alamar blue staining based microplate analysis.
The test system of assay [3] is Mycobacterium tuberculosis. Put plainly: Antimycobacterial activity against Mycobacterium tuberculosis H37Rv overexpressing dfrA by alamar blue staining based microplate analysis.
The test system of assay [4] is Mycobacterium tuberculosis. Put plainly: Antimycobacterial activity against Mycobacterium tuberculosis H37Rv overexpressing ribD by alamar blue staining based microplate analysis.

For `O=C(Nc1ccc(C(=O)O)c(O)c1)c1ccc2ccccc2n1`, the MIC in assay [1], in assay [2], in assay [3] and in assay [4] was 8 µg/mL (≈ 25.9 µM) throughout.
In the case of `O=C(Nc1ccc(C(=O)[O-])c(O)c1)c1ccc2ccccc2n1.[Na+]`, the MIC in assay [1], in assay [2], in assay [3] and in assay [4] was 8 µg/mL throughout.
Regarding `Nc1ccc(C(=O)O)c(O)c1` [AMINOSALICYLIC ACID], the MIC in assay [1] was 0.02 µg/mL (≈ 0.131 µM); in assay [2], 0.02 µg/mL (≈ 0.131 µM); in assay [3] it was more than 5 µg/mL; in assay [4], 2.5 µg/mL (≈ 16.3 µM).
